Test results as given in article PMC10386914 (Clinical Pharmacokinetics, 2023).

Assay: Grade ≥3 toxicity
Assay type: in vivo, human
Conditions: standard dose; study period

## Cc1ccc(Nc2nccc(N(C)c3ccc4c(C)n(C)nc4c3)n2)cc1S(N)(=O)=O [Pazopanib]
  patients with grade ≥3 adverse events, wildtype patients: 29%
